Results as given in PMC3959874 (European journal of dermatology : EJD, 2013).

Columns and labels:
Imidazoline I2, Central = assay: Radioligand binding assay; parameters: species or system rat; settings: 10 μM; 25 °C, 30 min
[1] = target: Serotonin (5-Hydroxytryptam ine) 5-HT2B (Homo sapiens, UniProt P41595); assay: Radioligand binding assay; settings: 10 μM; 37 °C, 60 min
Prostanoid EP4 = Prostanoid EP4 (Homo sapiens, UniProt P35408); assay: Radioligand binding assay; settings: 10 μM; 25 °C, 120 min
[2] = target: Leukotriene, Cysteinyl CysLT 1 (Homo sapiens, UniProt Q9Y271); assay: Radioligand binding assay; settings: 10 μM; 25 °C, 30 min
Endothelin ETA = Endothelin ETA (Homo sapiens, UniProt P25101); assay: Radioligand binding assay; settings: 10 μM; 37 °C, 120 min
human PBMC = assay: IFN-γ secretion by stimulated PBMC; assay type: cell-based
Purinergic P2, = assay: Radioligand binding assay; parameters: species or system rat; settings: 10 μM; 25 °C, 60 min
Rolipram = assay: Radioligand binding assay; parameters: species or system rat; settings: 10 μM; 4 °C, 60 min
human whole blood = assay: Cytokine induction in human whole blood assay; assay type: cell-based; settings: three donors (figures 1D–F)
Calcium Channel N-Type = Calcium Channel N-Type (Rattus norvegicus, UniProt Q02294); assay: Radioligand binding assay; settings: 10 μM; 4 °C, 30 min
Adrenergic β1 = Adrenergic β1 (Homo sapiens, UniProt P08588); assay: Radioligand binding assay; settings: 10 μM; 25 °C, 120 min
[3] = tested on: Sodium Channel, Site 2 289593; assay: Radioligand binding assay; parameters: species or system rat; settings: 10 μM; 37 °C, 60 min
CYP450, 2D6 = CYP450, 2D6 (Homo sapiens, UniProt P10635); assay: Cytochrome P450 enzyme assay; assay type: in vitro ADME; settings: 10 μM; 37 °C, 45 min
[4] = tested on: Glutamate, NMDA, Phencyclidine; assay: Radioligand binding assay; parameters: species or system rat; settings: 10 μM; 25 °C, 45 min
[5] = target: Transporter, Norepinephrine (NET) (Homo sapiens, UniProt P23975); assay: Radioligand binding assay; settings: 10 μM; 4 °C, 180 min
Bradykinin B2 = Bradykinin B2 (Homo sapiens, UniProt P30411); assay: Radioligand binding assay; settings: 10 μM; 25 °C, 60 min
Potassium Channel hERG = Potassium Channel hERG (Homo sapiens, UniProt Q12809); assay: Radioligand binding assay; settings: 10 μM; 25 °C, 60 min
[6] = Serum drug concentration after topical skin application; settings: mice, TMX-202 from TMX-202 gel, IMQ from Aldara
Muscarinic M1 = Muscarinic M1 (Homo sapiens, UniProt P11229); assay type: binding; settings: 10 μM; 25 °C, 120 min
Phorbol Ester = assay: Radioligand binding assay; parameters: species or system mouse; settings: 10 μM; 25 °C, 60 min
Glucocorticoid = Glucocorticoid (Homo sapiens, UniProt P04150); assay: Radioligand binding assay; settings: 10 μM; 25 °C, 120 min
CYP450, 2C19 = CYP450, 2C19 (Homo sapiens, UniProt P33261); assay: Cytochrome P450 enzyme assay; assay type: in vitro ADME; settings: 10 μM; 37 °C, 45 min
Neuropeptide Y Y2 = Neuropeptide Y Y2 (Homo sapiens, UniProt P49146); assay: Radioligand binding assay; settings: 10 μM; 37 °C, 120 min
[7] = target: Serotonin (5-Hydroxytryptam ine) 5-HT1A (Homo sapiens, UniProt P08908); assay: Radioligand binding assay; settings: 10 μM; 25 °C, 60 min
[8] = tested on: Calcium Channel L-Type, Dihydropyridine; assay: Radioligand binding assay; parameters: species or system rat; settings: 10 μM; 25 °C, 90 min
Estrogen ERa = Estrogen ERa (Homo sapiens, UniProt P03372); assay: Radioligand binding assay; settings: 10 μM; 25 °C, 120 min
[9] = target: Serotonin (5-Hydroxytryptam ine) 5-HT3 (Homo sapiens, UniProt P46098); assay: Radioligand binding assay; settings: 10 μM; 37 °C, 60 min
Potassium Channel [KATP] = assay: Radioligand binding assay; parameters: species or system human; settings: 10 μM; 25 °C, 120 min
[10] = tested on: Calcium Channel L-Type, Benzothiazepine; assay: Radioligand binding assay; parameters: species or system rat; settings: 10 μM; 4 °C, 180 min
Endothelin ETB = Endothelin ETB (Homo sapiens, UniProt P24530); assay: Radioligand binding assay; settings: 10 μM; 25 °C, 120 min

Leukotriene, Cysteinyl CysLT 1, sequence (Q9Y271 whole entry): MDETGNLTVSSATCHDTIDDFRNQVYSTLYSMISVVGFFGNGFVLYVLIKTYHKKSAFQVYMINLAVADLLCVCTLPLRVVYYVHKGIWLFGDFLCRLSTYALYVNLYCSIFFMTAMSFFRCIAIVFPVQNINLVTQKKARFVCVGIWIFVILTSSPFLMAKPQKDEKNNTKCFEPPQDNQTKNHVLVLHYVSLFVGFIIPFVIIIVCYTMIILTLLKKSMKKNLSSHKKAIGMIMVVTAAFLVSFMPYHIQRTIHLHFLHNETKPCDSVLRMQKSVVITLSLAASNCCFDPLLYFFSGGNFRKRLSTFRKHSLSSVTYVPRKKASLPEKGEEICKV
CYP450, 2C19, sequence (P33261 whole entry): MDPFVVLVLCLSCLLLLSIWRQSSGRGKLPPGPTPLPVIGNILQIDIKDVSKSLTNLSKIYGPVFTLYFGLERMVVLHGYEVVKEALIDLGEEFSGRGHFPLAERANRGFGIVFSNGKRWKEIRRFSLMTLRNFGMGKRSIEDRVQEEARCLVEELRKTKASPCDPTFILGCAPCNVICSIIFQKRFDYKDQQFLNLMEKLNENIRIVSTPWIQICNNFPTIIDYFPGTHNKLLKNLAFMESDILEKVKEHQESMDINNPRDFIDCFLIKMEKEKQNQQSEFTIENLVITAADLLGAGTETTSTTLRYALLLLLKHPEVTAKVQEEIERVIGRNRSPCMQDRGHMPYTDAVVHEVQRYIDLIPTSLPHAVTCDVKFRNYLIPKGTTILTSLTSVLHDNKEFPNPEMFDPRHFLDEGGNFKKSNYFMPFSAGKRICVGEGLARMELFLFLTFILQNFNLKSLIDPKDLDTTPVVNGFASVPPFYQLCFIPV
Serotonin (5-Hydroxytryptam ine) 5-HT2B, sequence (P41595 whole entry): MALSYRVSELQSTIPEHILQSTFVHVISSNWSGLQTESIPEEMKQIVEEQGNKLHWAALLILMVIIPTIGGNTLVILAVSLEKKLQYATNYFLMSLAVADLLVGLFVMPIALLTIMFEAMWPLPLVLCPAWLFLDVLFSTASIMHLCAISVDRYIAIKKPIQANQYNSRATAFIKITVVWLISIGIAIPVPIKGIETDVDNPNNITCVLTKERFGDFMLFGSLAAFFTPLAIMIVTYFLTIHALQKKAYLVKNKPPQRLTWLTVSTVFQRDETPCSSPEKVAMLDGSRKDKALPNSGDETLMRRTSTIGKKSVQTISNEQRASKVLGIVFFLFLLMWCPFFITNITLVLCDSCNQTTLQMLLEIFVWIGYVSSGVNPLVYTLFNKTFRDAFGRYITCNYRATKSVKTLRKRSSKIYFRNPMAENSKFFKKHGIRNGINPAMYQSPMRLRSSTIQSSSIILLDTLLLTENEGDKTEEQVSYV
Adrenergic β1, sequence (P08588 whole entry): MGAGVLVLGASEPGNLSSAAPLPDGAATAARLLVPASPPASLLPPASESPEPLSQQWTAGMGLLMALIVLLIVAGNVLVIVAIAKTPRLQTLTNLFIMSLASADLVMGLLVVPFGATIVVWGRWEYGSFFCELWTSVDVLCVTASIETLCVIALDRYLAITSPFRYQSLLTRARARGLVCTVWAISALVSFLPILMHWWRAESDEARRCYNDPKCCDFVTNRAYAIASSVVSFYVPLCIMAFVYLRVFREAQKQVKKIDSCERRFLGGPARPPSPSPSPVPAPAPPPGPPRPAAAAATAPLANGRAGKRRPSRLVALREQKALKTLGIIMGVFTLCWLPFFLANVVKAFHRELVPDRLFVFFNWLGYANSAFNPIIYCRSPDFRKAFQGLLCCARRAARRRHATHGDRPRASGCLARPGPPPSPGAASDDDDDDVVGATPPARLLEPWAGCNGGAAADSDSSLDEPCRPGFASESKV
Glucocorticoid, sequence (P04150 whole entry): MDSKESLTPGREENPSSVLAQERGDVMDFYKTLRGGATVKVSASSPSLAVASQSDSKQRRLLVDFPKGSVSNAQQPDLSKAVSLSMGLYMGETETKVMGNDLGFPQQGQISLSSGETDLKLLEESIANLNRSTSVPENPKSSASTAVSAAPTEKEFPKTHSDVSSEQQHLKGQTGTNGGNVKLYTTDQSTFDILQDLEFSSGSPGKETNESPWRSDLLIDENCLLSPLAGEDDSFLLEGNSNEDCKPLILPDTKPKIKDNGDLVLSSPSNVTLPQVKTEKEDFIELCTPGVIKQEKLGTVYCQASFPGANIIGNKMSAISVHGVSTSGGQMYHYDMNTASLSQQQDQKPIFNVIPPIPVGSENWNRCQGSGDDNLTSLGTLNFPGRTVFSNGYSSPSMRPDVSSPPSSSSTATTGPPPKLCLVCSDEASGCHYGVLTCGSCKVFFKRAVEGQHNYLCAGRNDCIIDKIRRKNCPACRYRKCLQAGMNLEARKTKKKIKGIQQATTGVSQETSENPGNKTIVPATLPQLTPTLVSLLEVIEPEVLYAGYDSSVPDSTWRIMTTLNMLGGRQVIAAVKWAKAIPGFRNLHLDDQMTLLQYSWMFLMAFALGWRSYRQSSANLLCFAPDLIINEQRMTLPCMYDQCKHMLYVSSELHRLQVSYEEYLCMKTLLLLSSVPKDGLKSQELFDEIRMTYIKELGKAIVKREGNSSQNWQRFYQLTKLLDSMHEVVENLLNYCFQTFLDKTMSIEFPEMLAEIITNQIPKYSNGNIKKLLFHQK
Bradykinin B2, sequence (P30411 whole entry): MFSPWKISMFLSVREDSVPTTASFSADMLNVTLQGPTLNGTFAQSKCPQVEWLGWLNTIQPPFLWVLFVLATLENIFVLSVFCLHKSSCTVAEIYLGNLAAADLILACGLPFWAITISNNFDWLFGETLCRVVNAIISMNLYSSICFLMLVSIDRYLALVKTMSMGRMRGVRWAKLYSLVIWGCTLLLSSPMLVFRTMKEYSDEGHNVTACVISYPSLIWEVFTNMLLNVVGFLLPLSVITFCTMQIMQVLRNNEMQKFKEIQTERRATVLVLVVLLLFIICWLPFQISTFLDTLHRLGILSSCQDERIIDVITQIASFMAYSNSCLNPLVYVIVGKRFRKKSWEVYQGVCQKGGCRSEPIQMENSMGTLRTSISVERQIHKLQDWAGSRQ
Neuropeptide Y Y2, sequence (P49146 whole entry): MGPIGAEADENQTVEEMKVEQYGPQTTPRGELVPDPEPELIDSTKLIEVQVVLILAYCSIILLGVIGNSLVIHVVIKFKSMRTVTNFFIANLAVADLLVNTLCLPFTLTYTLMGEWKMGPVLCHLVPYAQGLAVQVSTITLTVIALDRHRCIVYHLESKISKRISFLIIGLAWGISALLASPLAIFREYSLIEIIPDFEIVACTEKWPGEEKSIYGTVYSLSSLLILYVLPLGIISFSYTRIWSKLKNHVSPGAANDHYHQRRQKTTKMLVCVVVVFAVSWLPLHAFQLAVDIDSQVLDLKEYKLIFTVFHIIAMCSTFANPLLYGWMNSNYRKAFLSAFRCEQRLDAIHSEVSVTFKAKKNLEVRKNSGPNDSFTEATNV
Serotonin (5-Hydroxytryptam ine) 5-HT1A, sequence (P08908 whole entry): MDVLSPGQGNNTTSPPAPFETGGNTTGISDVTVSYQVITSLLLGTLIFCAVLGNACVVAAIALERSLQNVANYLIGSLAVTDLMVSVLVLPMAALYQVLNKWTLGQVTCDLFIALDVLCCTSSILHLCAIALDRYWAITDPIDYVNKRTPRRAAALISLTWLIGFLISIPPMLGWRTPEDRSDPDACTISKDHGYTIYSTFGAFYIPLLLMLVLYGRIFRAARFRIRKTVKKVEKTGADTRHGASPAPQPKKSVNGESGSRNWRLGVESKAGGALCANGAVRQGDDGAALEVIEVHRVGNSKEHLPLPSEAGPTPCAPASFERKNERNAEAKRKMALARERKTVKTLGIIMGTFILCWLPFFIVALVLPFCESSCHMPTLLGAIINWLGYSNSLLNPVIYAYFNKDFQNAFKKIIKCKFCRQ
Serotonin (5-Hydroxytryptam ine) 5-HT3, sequence (P46098 24-478): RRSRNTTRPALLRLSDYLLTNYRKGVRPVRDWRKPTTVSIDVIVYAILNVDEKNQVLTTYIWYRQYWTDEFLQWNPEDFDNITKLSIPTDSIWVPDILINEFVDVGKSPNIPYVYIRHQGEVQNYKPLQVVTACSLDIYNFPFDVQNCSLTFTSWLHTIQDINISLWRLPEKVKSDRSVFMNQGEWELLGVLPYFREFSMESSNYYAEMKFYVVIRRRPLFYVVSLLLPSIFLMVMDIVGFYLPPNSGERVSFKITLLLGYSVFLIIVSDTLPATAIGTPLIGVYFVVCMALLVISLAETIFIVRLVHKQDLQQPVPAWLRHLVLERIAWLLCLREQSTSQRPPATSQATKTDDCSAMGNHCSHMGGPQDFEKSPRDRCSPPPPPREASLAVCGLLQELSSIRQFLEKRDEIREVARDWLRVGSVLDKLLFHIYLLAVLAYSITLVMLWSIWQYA
CYP450, 2D6, sequence (P10635 whole entry): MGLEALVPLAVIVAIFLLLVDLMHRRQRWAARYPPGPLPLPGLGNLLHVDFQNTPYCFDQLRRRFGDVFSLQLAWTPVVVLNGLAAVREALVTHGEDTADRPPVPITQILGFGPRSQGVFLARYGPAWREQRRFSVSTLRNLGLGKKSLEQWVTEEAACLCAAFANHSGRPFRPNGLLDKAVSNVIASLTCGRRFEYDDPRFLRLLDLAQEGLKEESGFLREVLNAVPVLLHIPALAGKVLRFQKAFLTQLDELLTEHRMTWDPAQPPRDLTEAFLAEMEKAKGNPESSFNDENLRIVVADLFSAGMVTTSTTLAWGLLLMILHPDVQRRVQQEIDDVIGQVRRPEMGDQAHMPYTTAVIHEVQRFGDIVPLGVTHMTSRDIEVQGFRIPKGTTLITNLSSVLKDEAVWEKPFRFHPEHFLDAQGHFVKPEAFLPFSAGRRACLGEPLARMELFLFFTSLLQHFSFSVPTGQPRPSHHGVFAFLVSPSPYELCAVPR

## CCCCCCCCCCCC(=O)OC[C@@H](COP(=O)(O)OCCNC(=O)c1ccc(Cn2c(=O)[nH]c3c(N)nc(OCCOC)nc32)cc1)OC(=O)CCCCCCCCCCC [TMX-202]
Imidazoline I2, Central
  Percent inhibition of specific radioligand binding: −3%
[1]
  Percent inhibition of specific radioligand binding: 1%
Prostanoid EP4
  Percent inhibition of specific radioligand binding: 7%
[2]
  Percent inhibition of specific radioligand binding: 10%
Endothelin ETA
  Percent inhibition of specific radioligand binding: 13%
Human PBMC; PBMC from five independent donors (figure 6C)
  IFN-γ secretion compared with vehicle treated controls: significantly higher than vehicle treated controls
Human PBMC; human PBMC 10^6/mL, 1 μM TMX-202, 24 hrs, three donors
  Average IFN-γ levels in the TMX-202+CM: 204 ± 113 pg/mL
Purinergic P2,
  Percent inhibition of specific radioligand binding: 8%
Rolipram
  Percent inhibition of specific radioligand binding: 21%
Human whole blood
  Potency of hIL-12, hIL-6 and hIFN-α induction compared with IMQ: higher potency
Calcium Channel N-Type
  Percent inhibition of specific radioligand binding: −12%
Adrenergic β1
  Percent inhibition of specific radioligand binding: 18%
[3]
  Percent inhibition of specific radioligand binding: 15%
CYP450, 2D6
  Percent inhibition of enzyme activity: 0%
[4]
  Percent inhibition of specific radioligand binding: 2%
[5]
  Percent inhibition of specific radioligand binding: 57%
Bradykinin B2
  Percent inhibition of specific radioligand binding: −2%
Potassium Channel hERG
  Percent inhibition of specific radioligand binding: −4%
[6]
  Serum level of the compound one hour after the application: 2.6 ± 0.6 pg/mL
Muscarinic M1
  Percent inhibition of specific radioligand binding: 0%
Phorbol Ester
  Percent inhibition of specific radioligand binding: −8%
Glucocorticoid
  Percent inhibition of specific radioligand binding: −1%
CYP450, 2C19
  Percent inhibition of enzyme activity: 1%
Neuropeptide Y Y2
  Percent inhibition of specific radioligand binding: 4%
[7]
  Percent inhibition of specific radioligand binding: −7%
[8]
  Percent inhibition of specific radioligand binding: 10%
Estrogen ERa
  Percent inhibition of specific radioligand binding: 7%
[9]
  Percent inhibition of specific radioligand binding: 3%
Potassium Channel [KATP]
  Percent inhibition of specific radioligand binding: 8%
[10]
  Percent inhibition of specific radioligand binding: 1%
Endothelin ETB
  Percent inhibition of specific radioligand binding: −7%
